Measured values taken from publication PMC6493465 (Oncotarget, 2019).
Like-named read-outs stand apart in the source and are kept apart here.

Key:
[1] = Pharmacokinetic assays (plasma and tumor) in nude mice xenografted with MV4-11 cells; assay type: in vivo, mouse; details: for AUC24 ratio: combination versus the other group; for Cmax / Tmax / AUC: nude, mouse; for AUC: read-out: AUC24
Procedure: Plasma samples were prepared by centrifugation (n=3 per group; one sample in the combination group was excluded due to improper handling). […] These assays were conducted by Astellas Research Technologies Co., Ltd. under the guidance of Analysis & Pharmacokinetics Research Laboratories, Astellas Pharma, Inc., or by Nemoto Science Co., Ltd. (Ibaraki, Japan). […] Body weight and tumor assessments obtained on with MV4-11 cells received one of the following Day −1 were designated as Day 0 (baseline) measurements. combination treatments: 1. […] The percent tumor regression was calculated using the formula: […]

MV4-11 cells [2] = assay: Cell cycle analysis; assay type: cell-based, human; details: 24 hours, control 59.8%
Procedure: MV4-11 cells were seeded in 12-well plates (AGC Techno Glass Co. Ltd., Shizuoka, Japan) at a concentration of 2 × 10^5 cells/well and cultured overnight.
The cells were subsequently harvested and fixed in ice-cold 70% ethanol and maintained at 4°C. Following fixation, the cells were washed with phosphate-buffered saline (PBS) and were resuspended in Guava® Cell Cycle Reagent (Merck Millipore Corporation, Darmstadt, Germany). Cell cycle distribution was measured using a Guava® PCA microcytometer (Merck Millipore Corporation), and was analyzed in 5000 cells per sample using CytoSoft™ software (Merck Millipore Corporation). The mean percentages of cells in sub-G1, G1, S, and G2/M phases were derived from four independent assays.

MV4-11 cells [3] = assay: Annexin-V staining (apoptosis), MV4-11; assay type: cell-based, human; details: gilteritinib alone 3, 10 and 30 nM, 48 hours, vs vehicle
Procedure: MV4-11 cells were seeded in 12-well plates at a concentration of 2 × 10^5 cells/well and cultured overnight. […] MOLM-13 cells were seeded in 12-well plates at a concentration of 1 × 10^5 cells/well and cultured overnight.
Cells were harvested and incubated with Guava® Nexin Reagent (Merck Millipore Corporation, Billerica, MA). Annexin-V-positive cells were assessed using a Guava® PCA microcytometer (Merck Millipore Corporation); the percentage of annexin-V-positive cells (2000 cells per sample) was analyzed using CytoSoft™ software (Merck Millipore Corporation). Mean percentages of annexin-V-positive cells were derived from three independent experiments.

[4] = plasma, iv, 3 mg/kg, azacitidine in plasma, gilteritinib 3, azacitidine 3 mg/kg
[5] = plasma, iv, azacitidine in plasma, doses gilteritinib 3, azacitidine 0 mg/kg
[6] = tumor, iv, 3 mg/kg, azacitidine in tumor, gilteritinib 3, azacitidine 3 mg/kg
[7] = plasma, po, 3 mg/kg, gilteritinib in plasma, gilteritinib 3 mg/kg, AraC 0, IDR 0
[8] = plasma, po, 3 mg/kg, gilteritinib in plasma, gilteritinib 3, AraC 50, IDR 0.5 mg/kg
[9] = plasma, po, 3 mg/kg, gilteritinib in plasma, gilteritinib 3, azacitidine 0 mg/kg
[10] = plasma, po, 3 mg/kg, gilteritinib in plasma, gilteritinib 3, azacitidine 3 mg/kg
[11] = tumor, po, 3 mg/kg, gilteritinib in tumor, gilteritinib 3 mg/kg, AraC 0, IDR 0
[12] = tumor, po, 3 mg/kg, gilteritinib in tumor, gilteritinib 3, AraC 50, IDR 0.5 mg/kg
[13] = tumor, po, 3 mg/kg, gilteritinib in tumor, gilteritinib 3, azacitidine 0 mg/kg
[14] = tumor, po, 3 mg/kg, gilteritinib in tumor, gilteritinib 3, azacitidine 3 mg/kg

Nc1ncn([C@@H]2O[C@H](CO)[C@@H](O)[C@H]2O)c(=O)n1 [Aza, Azacitidine]
AUC24 ratio ([1]; azacitidine in plasma): 0.87 | AUC24 ratio ([1]; azacitidine in tumor): 1.17 | AUC24 ([1]; azacitidine in tumor, doses gilteritinib 3, azacitidine 0 mg/kg): 323 ng·h/g | AUC24 ([1]; azacitidine in tumor, gilteritinib 3, azacitidine 3 mg/kg): 378 ng·h/g | Cmax [1, 4]: 3440 ng/mL | Tmax [1, 4]: 0.08 h | AUC [1, 4]: 1610 ng·h/mL | Cmax [1, 5]: 3390 ng/mL | Tmax [1, 5]: 0.08 h | AUC [1, 5]: 1850 ng·h/mL | Cmax [1, 6]: 96.8 ng/g | Tmax [1, 6]: 0.5 h | Cmax ([1]; tumor, iv, azacitidine in tumor): 61.3 ng/g | Tmax ([1]; tumor, iv, azacitidine in tumor, doses gilteritinib 3, azacitidine 0 mg/kg): 0.08 h

CCc1nc(C(N)=O)c(Nc2ccc(N3CCC(N4CCN(C)CC4)CC3)c(OC)c2)nc1NC1CCOCC1 [Gilteritinib]
mean proportion of MV4-11 cells in G1 phase (MV4-11 cells [2]; gilteritinib 3 nM): 69.0% | mean proportion of MV4-11 cells in G1 phase (MV4-11 cells [2]; gilteritinib 10 nM): 70.7% | proportion of annexin-V-positive cells (MV4-11 cells [3]): significantly increased | difference in PK profile alone versus in combination ([1]; alone or in combination with AraC/IDR or Aza): no discernable difference | AUC24 ([1]; gilteritinib in tumor, gilteritinib 3 mg/kg, AraC 0, IDR 0): 6430.2 ng·h/g | AUC24 ([1]; gilteritinib in tumor, gilteritinib 3, AraC 50, IDR 0.5 mg/kg): 6639.0 ng·h/g | AUC24 ([1]; gilteritinib in tumor, gilteritinib 3, azacitidine 0 mg/kg): 3821 ng·h/g | AUC24 ([1]; gilteritinib in tumor, gilteritinib 3, azacitidine 3 mg/kg): 3964 ng·h/g | Cmax [1, 7]: 21.3 ng/mL | Tmax [1, 7]: 2 h | AUC [1, 7]: 156 ng·h/mL | Cmax [1, 8]: 22.3 ng/mL | Tmax [1, 8]: 2 h | AUC [1, 8]: 199 ng·h/mL | Cmax [1, 9]: 11 ng/mL | Tmax [1, 9]: 2 h | AUC [1, 9]: 65.8 ng·h/mL | Cmax [1, 10]: 10.1 ng/mL | Tmax [1, 10]: 2 h | AUC [1, 10]: 69.1 ng·h/mL | Cmax [1, 11]: 677 ng/g | Tmax [1, 11]: 2 h | Cmax [1, 12]: 437 ng/g | Tmax [1, 12]: 4 h | Cmax [1, 13]: 387 ng/g | Tmax [1, 13]: 4 h | Cmax [1, 14]: 349 ng/g | Tmax [1, 14]: 4 h | time after administration at which plasma concentrations peaked ([1]; plasma, alone or in combination with AraC/IDR or Aza): 2 h | concentration in tumor fraction versus plasma fraction ([1]; xenografted mice): higher in the tumor fraction
